Where two headings read alike, the source gives them in different places. No end group written: not given here.
Experiments:
[1] = tested on: native pacemaker channels (IH); settings: cited from earlier work
HCN1 channel = test: Two microelectrode voltage clamp (2MEV) of HCN1 and HCN1 mutants expressed in Xenopus oocytes; format: cell-based, mouse; settings: forskolin 10 μM, 30 min, SQ-22536 300 μM, 3 hr
HCN1-ΔNvΔC channel = target: T1, HCN1-ΔNvΔC channel (Mus musculus, UniProt O88704, A73M); test: Excised inside-out patch (IOP) clamp of HCN1-ΔNvΔC and basic-residue alanine mutants with 4,5-PIP2; format: biochemical
T1 construct: HCN1-ΔNvΔCterm (amino acid positions 73 to 390 of mHCN1); expressed in transfected cells; host or cells: Xenopus oocytes (cRNA injection); excised inside-out patches
T1 sequence (O88704 73-390 A73M): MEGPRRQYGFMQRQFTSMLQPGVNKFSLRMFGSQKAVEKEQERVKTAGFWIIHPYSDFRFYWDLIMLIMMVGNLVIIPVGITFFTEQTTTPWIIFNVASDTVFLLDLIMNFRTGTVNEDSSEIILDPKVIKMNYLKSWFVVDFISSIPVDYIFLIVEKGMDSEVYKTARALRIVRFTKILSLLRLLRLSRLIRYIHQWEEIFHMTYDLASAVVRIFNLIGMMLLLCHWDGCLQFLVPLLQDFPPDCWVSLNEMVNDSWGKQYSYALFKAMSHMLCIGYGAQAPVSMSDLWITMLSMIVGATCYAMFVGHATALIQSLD
Description: Molecular Biology. […] Electrophysiology-General. […] Electrophysiology-Excised cell-free inside-out patch clamp recordings. […] When cAMP was applied, NaCl was replaced with equivalent amount of cAMP. In experiments where 4,5-PIP2, kinase inhibitors or other compounds were included, stock solutions of the compounds dissolved in either DMSO or H2O were added to the recording solutions to an appropriate final concentration. […] It was routinely tested and confirmed that addition of the solvents alone was without effect. Analysis of electrophysiological recordings. […] IOP-clamp was performed to measure the gating activity of the wild type and mutant channels under a “rundown” condition. […] The minimal 4,5-PIP2 responsive mouse HCN1 channel […] of mHCN1), were further mutated to produce the following constructs in which the basic amino acid residues Arginine, Lysine and Histidine are replaced […]), NT2 […], and […]), NT3 […], and […]), NT4 […], and […], and […], and […]), and […]). All individual point mutations were also constructed. The mutants were expressed in Xenopus oocytes. IOP clamp was performed with the mutant channels in the presence and absence of 5 μM 4,5-PIP2. […] Facilitation of HCN channel gating may be effected by direct interaction between 4,5-PIP2 and basic amino acid residues in the cytoplasmic region of the HCN channel. See hypothesis in the legend of FIG. 6.

HCN2-R591E channel = target: T2, HCN2-R591E channel (Mus musculus, UniProt O88703, R591E); test: Excised inside-out patch (IOP) clamp of HCN2-R591E after rundown, 4,5-PIP2 rescue; format: biochemical
T2 construct: expressed in transfected cells; host or cells: Xenopus oocytes (cRNA injection); excised inside-out patches
T2 sequence (O88703 1-863 R591E): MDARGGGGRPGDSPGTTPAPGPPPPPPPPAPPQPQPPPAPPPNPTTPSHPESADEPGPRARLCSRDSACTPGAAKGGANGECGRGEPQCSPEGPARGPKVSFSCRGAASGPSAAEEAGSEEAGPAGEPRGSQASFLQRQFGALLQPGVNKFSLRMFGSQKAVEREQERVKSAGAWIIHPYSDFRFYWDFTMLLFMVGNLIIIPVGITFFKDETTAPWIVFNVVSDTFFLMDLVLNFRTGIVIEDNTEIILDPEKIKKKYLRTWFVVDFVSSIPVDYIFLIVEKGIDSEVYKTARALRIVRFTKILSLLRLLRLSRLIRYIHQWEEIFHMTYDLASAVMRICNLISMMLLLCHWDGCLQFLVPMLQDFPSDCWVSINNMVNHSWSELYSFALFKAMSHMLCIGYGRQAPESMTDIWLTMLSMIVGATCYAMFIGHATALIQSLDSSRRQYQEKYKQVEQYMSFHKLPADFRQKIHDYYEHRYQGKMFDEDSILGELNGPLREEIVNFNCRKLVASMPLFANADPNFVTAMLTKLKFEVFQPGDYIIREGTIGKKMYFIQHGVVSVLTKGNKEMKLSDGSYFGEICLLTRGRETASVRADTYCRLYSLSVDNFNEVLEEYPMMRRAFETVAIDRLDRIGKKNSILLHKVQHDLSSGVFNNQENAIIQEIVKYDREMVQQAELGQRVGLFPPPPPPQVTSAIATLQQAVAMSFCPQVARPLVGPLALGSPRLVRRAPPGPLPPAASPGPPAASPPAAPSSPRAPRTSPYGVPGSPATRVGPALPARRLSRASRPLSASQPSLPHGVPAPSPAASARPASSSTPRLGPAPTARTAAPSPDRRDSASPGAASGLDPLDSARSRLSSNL
Description: Molecular Biology. […] Electrophysiology-General. […] Electrophysiology-Excised cell-free inside-out patch clamp recordings. […] When cAMP was applied, NaCl was replaced with equivalent amount of cAMP. In experiments where 4,5-PIP2, kinase inhibitors or other compounds were included, stock solutions of the compounds dissolved in either DMSO or H2O were added to the recording solutions to an appropriate final concentration. […] It was routinely tested and confirmed that addition of the solvents alone was without effect. Analysis of electrophysiological recordings. […] An HCN2-[…] construct was expressed in Xenopus oocytes. 2 MEV-clamp recording was performed to measure the gating activity of the HCN2-[…] channel in the intact Xenopus oocytes. IOP-clamp was performed to measure the gating activity of the HCN2-[…] channel under a “rundown” condition. IOP-clamp was also performed in the presence of 4,5-PIP2 to detect the effect of 4,5-PIP2 on the gating activity of the HCN2-[…] channel under a “rundown” condition.

[2] = ADn: Thalamic anterior dorsal relay neurons
[3] = CP: Cerebellar purkinje neurons
[4] = DRG: Dorsal root ganglion neurons
[5] = CA1: CA1 pyramidal neurons or unidentified CA1 cells
[6] = ORN: Olfactory receptor neurons
[7] = MTNB: medial nucleus of the trapezoid body
[8] = SO: CA1 stratum oriens-alveus interneuron

NCCc1c[nH]c2ccc(O)cc12 [5-HT]
Δ V1/2 [1, 2]: +15 mV | Δ V1/2 ([1]; BSMN: Brainstem motor neurons): +6 mV BSMN | Δ IMAX ([1]; CMN: crustacean motor neurons): +20% | Δ V1/2 ([1]; CMN: crustacean motor neurons): +10 mV | Δ V1/2 [1, 3]: −8 mV | Δ V1/2 [1, 4]: +6 mV | Δ IMAX ([1]; FM: Facial motor neurons): +25% | Δ IMAX ([1]; PH: Prepositus Hyperglossi neurons): +30% | Δ IMAX ([1]; ST: Solitary tract neurons): +100% ST | Δ IMAX ([1]; TR: thalamic relay): +20% | Δ V1/2 ([1]; TR: thalamic relay): +5 mV | Δ V1/2 ([1]; VT: Ventral tegmental neurons): −7 m

NCCc1c[nH]c2ccc(C(N)=O)cc12 [5CT]
Δ V1/2 [1, 2]: +15 mV | Δ IMAX [1, 5]: +50% | Δ V1/2 [1, 5]: +5 mV CA1 | Δ V1/2 [1, 4]: +6 mV

CCCN(CCC)C1CCc2cccc(O)c2C1 (stereo not shown) [8-OH-DPAT]
Δ IMAX ([1]; ST: Solitary tract neurons): +100% ST

Nc1ncnc2c1ncn2[C@@H]1O[C@H](CO)[C@@H](O)[C@H]1O [Adenosine]
Δ V1/2 [1, 4]: −7 mV | Δ V1/2 ([1]; SA: sinoatrial node): −6 mV

NCC(CC(=O)O)c1ccc(Cl)cc1 (stereo not shown) [Baclofen]
Δ IMAX ([1]; SNZC: Substantia nigra zona compacta): −11% | Δ IMAX ([1]; VT: Ventral tegmental neurons): −20%

Clc1cccc(Cl)c1N=C1NCCN1 [Clonidine]
Δ IMAX [1, 4]: HG, −40% DRG | Δ V1/2 ([1]; HG: Hypoglossal motor neurons): −4 mV HG

COc1cc(CC(C)N)c(OC)cc1I (stereo not shown) [DOI]
Δ V1/2 [1, 3]: −8 mV | Δ IMAX ([1]; FM: Facial motor neurons): +25% | Δ V1/2 ([1]; VT: Ventral tegmental neurons): −7 m

NCCc1ccc(O)c(O)c1 [Dopamine]
Δ IMAX [1, 6]: −50% | Δ V1/2 [1, 6]: −9 mV | Δ V1/2 ([1]; PG: Pyloric ganglion motor neurons): +20 mV PG | Δ IMAX ([1]; ROD: Rod photoreceptors): −30% ROD | Δ V1/2 ([1]; ROD: Rod photoreceptors): −17 mV | Δ IMAX ([1]; VT: Ventral tegmental neurons): −20%

CC(C)NCC(O)c1ccc(O)c(O)c1 (stereo not shown) [Isoproterenol]
Δ IMAX ([1]; AT: atrial myocyte): +90% | Δ V1/2 ([1]; AT: atrial myocyte): +11 mV | Δ V1/2 ([1]; BC: cerebllar basket cell): +6 mV | Δ IMAX ([1]; ECM: Embryonic cardiomyocytes): +65% | Δ V1/2 [1, 7]: +12 mV | Δ IMAX [1, 8]: +30% | Δ IMAX ([1]; TR: thalamic relay): ECM; +31% TR; BC; | Δ V1/2 ([1]; TR: thalamic relay): +5 mV

OC[C@H]1O[C@@H](n2cnc3c(NC4CCCCC4)ncnc32)[C@H](O)[C@@H]1O [N6-CHA]
Δ V1/2 [1, 4]: −7 mV | Δ V1/2 ([1]; SA: sinoatrial node): −6 mV

OC[C@H]1O[C@@H](n2cnc3c(NC4CCCC4)ncnc32)[C@H](O)[C@@H]1O [N6-CPA]
Δ V1/2 [1, 4]: −7 mV | Δ V1/2 ([1]; SA: sinoatrial node): −6 mV

NC[C@H](O)c1ccc(O)c(O)c1 [NorE]
Δ IMAX ([1]; AT: atrial myocyte): +90% | Δ V1/2 ([1]; AT: atrial myocyte): +11 mV | Δ V1/2 ([1]; BC: cerebllar basket cell): +6 mV | Δ IMAX ([1]; ECM: Embryonic cardiomyocytes): +65% | Δ V1/2 [1, 7]: +12 mV | Δ IMAX [1, 8]: +30% | Δ IMAX ([1]; TR: thalamic relay): ECM; +31% TR; BC; | Δ V1/2 ([1]; TR: thalamic relay): +5 mV

CCCCCCCC/C=C/CCCCCCCC(=O)OCC(CO)OC(C)=O (stereo not shown) [OAG]
Δ IMAX ([1]; SNPC: Substantia nigra pars compacta): −49% SNPC

CCCCC[C@H](O)/C=C/[C@H]1[C@H](O)CC(=O)[C@@H]1C/C=C\CCCC(=O)O [PGE2]
Δ IMAX ([1]; NG: Nodose ganglion): +18% NG, TG | Δ V1/2 ([1]; NG: Nodose ganglion): +6 mV NG, TG | Δ IMAX ([1]; TG: Trigeminal ganglion): +18% NG, TG | Δ V1/2 ([1]; TG: Trigeminal ganglion): +6 mV NG, TG

Nc1ncnc2c1ncn2C1CCCO1 (stereo not shown) [SQ-22536]
Effect on gating (HCN1 channel; HCN1-R538E): not altered | Effect on V1/2 of activation (HCN1 channel; wild type HCN1): inhibited

C[N+](C)(C)CCOC(N)=O [carbachol]
Δ IMAX ([1]; ECM: Embryonic cardiomyocytes): −41% | Δ IMAX ([1]; LGN): CA1; +43% LGN | Δ V1/2 ([1]; LGN): CA1; +5 mV LGN | Δ V1/2 ([1]; PF: cardiac purkinje fibre): −8 mV SA, PF | Δ V1/2 ([1]; SA: sinoatrial node): −8 mV SA, PF

AT-II: agonist listed for angiotensin AT½ receptor (DRVYIHPF; Angiotensin-2; UniProt P01019 25-32, looked up)
Δ V1/2 ([1]; PVN: Hypothalamic paraventricular neurons): +8m PVN

EGF: agonist listed for EGF receptor
Δ IMAX ([1]; SA: sinoatrial node): +23% SA

PACAP38: agonist listed for PAC1 receptor (HSDGIFTDSYSRYRKQMAVKKYLAAVLGKRYKQRVKNK; ends and bridges not checked; UniProt P18509 132-169, looked up)
Δ IMAX ([1]; TR: thalamic relay): +30% TR | Δ V1/2 ([1]; TR: thalamic relay): +7 mV TR

Phosphatidyl-inositol 4,5-bisphosphate [4,5-PIP2]
Effect on gating of rundown channels (HCN1-ΔNvΔC channel; HCN1-ΔNvΔC, 5 uM 4,5-PIP2, 5 min): redepolarizes gating | Response to 4,5-PIP2 facilitation of channel gating (HCN1-ΔNvΔC channel; mutants NT1, NT2 and NT3 of HCN1-ΔNvΔCterm, 5 μM 4,5-PIP2): reduced response | Response (difference in V1/2) to 4,5-PIP2 versus wild type (HCN1-ΔNvΔC channel; mutants R59A, S23-3A, R112A, S45-3A of HCN1-ΔNvΔC, 5 uM 4,5-PIP2): not different from wild type | Effect on gating activity under rundown condition (HCN2-R591E channel; IOP-clamp): restore the gating activity | Effect on gating slope (HCN2-R591E channel; IOP-clamp after rundown): restores the more shallow gating slope | Mean shift in V1/2 contributed by 4,5-PIP2 to intact cell gating (HCN2-R591E channel; IOP-clamp after rundown): ~20 mV

Sub P: agonist listed for tachykinin NK 1/2/3 receptor (RPKPQQFFGLM; ends and bridges not checked; UniProt P20366 58-68, looked up)
Δ V1/2 ([1]; NG: Nodose ganglion): −20 mV. NG

VIP: agonist listed for PAC1 receptor (HSDAVFTDNYTRLRKQMAVKKYLNSILN; ends and bridges not checked; UniProt P01282 125-152, looked up)
Δ IMAX ([1]; TR: thalamic relay): +30% TR | Δ V1/2 ([1]; TR: thalamic relay): +7 mV TR

B1: BDNF: neurotrophin, agonist listed for TrkA/B/C, P75 (protein, UniProt P23560 19-247, looked up)
Neurotrophic factor BDNF …: APMKEANIRGQGGLAYPGVRTHGTLESVNGPKAGSRGLTSLADTFEHVIEELLDEDQKVRPNEENNKDADLYTSRVMLSSQVPLEPPLLFLLEEYKNYLDAANMSMRVRRHSDPARRGELSVCDSISEWVTAADKKTAVDMSGGTVTVLEKVPVSKGQLKQYFYETKCNPMGYTKEGCRGIDKRHWNSQCRTTQSYVRALTMDSKKRIGWRFIRIDTSCVCTLTIKRGR
Δ IMAX ([1]; PBC: Pre-botzinger complex): −46% PBC | Δ V1/2 ([1]; PBC: Pre-botzinger complex): −17 mV PBC
